What all share (assay type): in vivo
For test [1], the system named is Scn1a^−/− mice. Nature of the test: Neonatal welfare scoring (TNW) in Scn1a^−/− mice, Study I. The method, then: 129S-Scn1a^tm1Keammjax heterozygote mice (Jackson Laboratory, USA) were maintained in and bred together to obtain Scn1a^−/− and wild type (WT) animals used for this Study (n=10 per group).
(§1) Following genotyping, animals were randomly divided into four groups WT vehicle-treated, WT CBD-treated, Scn1a^−/− vehicle-treated and Scn1a^−/− CBD-treated (n=10/group). They were injected subcutaneously twice daily with either CBD (100 mg/kg) or its vehicle (ethanol:Kolliphor®:0.9% saline=2:1:17) from P8 until P25 or death (whichever was earlier).
A twice daily welfare check was conducted throughout the entire duration of the study. Drug administration was conducted at 0800 h and followed by welfare checks. Conversely, afternoon welfare checks were conducted from 1600 h and followed by drug administration in order to provide the maximum possible time between doses. […]
The parameters used for the welfare assessment were: weight, natural activity (NA; 0-3), reflex/response to touch (RT; 0-3), orbital tightening (OT; 0-2), and body condition score (BC; 1-3). A total neonatal welfare score (TNW; range 0-8) was calculated by adding together scores from NA, RT, and […].
In Study I, the welfare parameters were analysed using SPSS 24 (IBM SPSS Statistics®, UK), whilst survival data were analysed using GraphPad Prism 6 software (GraphPad Software, Inc., USA). […] All the data are expressed as mean±SEM. […]

The test system of test [2] is Scn1a^+/− mice. As to the kind of experiment: Eight-arm radial arm maze (RAM) test, cognition, Study II. The settings on record: CBD 100 mg/kg s.c. twice daily. As to the method: (§2) Here, Scn1a^+/− were randomly divided into two groups and subcutaneously injected with either CBD (100 mg/kg twice daily; n=12) or its vehicle (ethanol:Kolliphor®:0.9% saline=2:1:17; n=29) from P8 onwards until P52 or death (whichever was earlier).
A radial arm maze (RAM) consisting of eight arms (each arm 60×10 cm; raised at 50 cm above the floor) was used to assess the reference memory (RM) and working memory (WM) of the animals. On four consecutive days, animals were given two 10-minute sessions of habituation to the test apparatus and rules of the test, separated by a 90 min interval. During the first two days of habituation, food rewards (¼ Cheerios®, Nestle) were randomly scattered on the floor of the apparatus covering all arms and food-troughs at the end of each arm. On the 3rd and 4th habituation day, food rewards were placed only in food troughs of four randomly selected arms (fixed for each animal during the habituation and test day). Food was withdrawn 4-6 hours before the trial (both during habituation and test days) to motivate the animals to locate the rewards and thus perform the task. On the test day two trials of 10 min were conducted at 90 min interval and the activity of the animals were video recorded for offline blinded coding after the end of experiment. Entry to a non-baited arm was considered as a reference memory error (RME), whereas re-entry to a previously baited arm from which the food was already taken is considered as a working memory error (WME). The mean WME or RME were calculated from the two test trials.
In Study II, the data were analysed in GraphPad Prism 6 software. Survival curves of Scn1a^+/− vehicle-treated and Scn1a^+/− CBD-treated group were compared using a Mantel-Cox test. The percentage of animals from the Scn1a^+/− vehicle-treated and Scn1a^+/− CBD-treated groups that survived until the end of the study (P52) were compared by Fisher's exact test. Further, data obtained from the comorbidity assessment were checked for normality by D'Agostino & Pearson omnibus normality test. Data obtained from rotarod, gait, social interaction (active interaction), EPM, sucrose preference, RAM (RME) tests were normally distributed and the differences between the three groups were analysed by one-way ANOVA. If a significant difference was found then Holm-Sidak post-hoc test was conducted among the groups. […] Upon observing a significant difference, the Dunn's post-hoc test was employed to compare the groups. Multiple comparisons were corrected in all cases. Parametric data are presented in scattered dot plot in the figures and are expressed as mean±SEM. Non-parametric data are presented in box plot in the figures and are expressed as median, min to max, and interquartile range (IQR). […]

Test [3] deals with Scn1a^+/− mice. As to the kind of experiment: Sucrose preference test, depression-like behaviour, Study II. The settings on record: CBD 100 mg/kg s.c. twice daily. As to the method:
as §2
The sucrose preference test was carried out to assess the depression-like behaviour (Serova, Mulhall, & Sabban, 2017). The animals were separately housed during this test. Here, 24 hours before the test, animals were trained to drink from two bottles each containing 2% sucrose. On the first day of test, the animals were provided with a pre-weighed bottle of 2% sucrose and another containing a pre-weighed volume of tap water. The positions of the bottles were swapped after 24 hours to avoid any side preferences. After 48 hours, both bottles were weighed, and sucrose preference was calculated by using the following formula: […]
In Study II, the data were analysed in GraphPad Prism 6 software. […] Data obtained from rotarod, gait, social interaction (active interaction), EPM, sucrose preference, RAM (RME) tests were normally distributed and the differences between the three groups were analysed by one-way ANOVA. […] Parametric data are presented in scattered dot plot in the figures and are expressed as mean±SEM. Non-parametric data are presented in box plot in the figures and are expressed as median, min to max, and interquartile range (IQR). […]

In test [4] the test system is Scn1a^−/− mice. As to the kind of experiment: Survival in Scn1a^−/− mice, Study I (acute model of Dravet syndrome). To be noted: CBD-treated Scn1a^−/− mice; 100 mg/kg s.c. twice daily from P8; n=10; vehicle 15.5 days; Mantel-Cox p=0.003; FIG. 1B. The method, then: as §1
Animal suffering was minimised by employing a validated, welfare scoring system alongside a mathematical model to predict death. In this way, any animal for which the model predicted death could be sacrificed 0.5 day before enduring the maximal severity of the disease.
Additionally, surface temperature (ST) threshold was employed such that if the sum of the ST scores over the last 1.5 days, was equal to or greater than 3, the animal would be killed by cervical dislocation within 0.5 day.
In Study I, the welfare parameters were analysed using SPSS 24 (IBM SPSS Statistics®, UK), whilst survival data were analysed using GraphPad Prism 6 software (GraphPad Software, Inc., USA). Data obtained from welfare parameters were compared using a three-way ANOVA to observe the main effects of treatment, genotype and time, and their two-way and three-way interactions. […] All the data are expressed as mean±SEM. […]

In the case of `C=C(C)[C@@H]1CCC(C)=C[C@H]1c1c(O)cc(CCCCC)cc1O` [CBD, cannabidiol], in the test with Scn1a^−/− mice [1] (Scn1a^−/− CBD-treated group, CBD 100 mg/kg s.c. twice daily from P8 until P25 or death, n=10, mean±SEM, score range 0-8, vehicle group 3.66±0.04), the “mean total neonatal welfare (TNW) score” value was 2.85±0.04. Also, the “welfare scores versus vehicle-treated Scn1a^−/− mice (post hoc)” value in the test on Scn1a^−/− mice [1] (from P12 to P16, CBD 100 mg/kg s.c. twice daily, p<0.01, FIG. 1A) is on record as “delayed the worsening of welfare scores”. Also, in the test on Scn1a^+/− mice [2] (p=0.65), the “reference memory errors (RME), Scn1a^+/− CBD-treated versus WT vehicle-treated” value is on record as “No difference”. Further, the “working memory errors (WME), Scn1a^+/− CBD-treated versus WT vehicle-treated” value with Scn1a^+/− mice [2] (p>0.9999) is recorded as “not differed”. In addition, in the test on Scn1a^+/− mice [2] (statement describes vehicle group relative to CBD group (n=10), p<0.0001, FIG. 4E), the “reference memory errors (RME), Scn1a^+/− vehicle-treated compared to Scn1a^+/− CBD-treated” value is “significantly more RME”. Further, the “working memory errors (WME), Scn1a^+/− vehicle-treated compared to Scn1a^+/− CBD-treated” value with Scn1a^+/− mice [2] (statement describes vehicle group relative to CBD group, p=0.001, FIG. 4F) is given as “significantly more WME”. In addition, the “sucrose preference, Scn1a^+/− CBD-treated versus WT vehicle-treated” value with Scn1a^+/− mice [3] (p=0.36) was “similar”. Besides, the “sucrose preference, Scn1a^+/− vehicle-treated compared to Scn1a^+/− CBD-treated” value in the test on Scn1a^+/− mice [3] (statement describes vehicle group relative to CBD group (n=10), p=0.01, FIG. 4D) is on record as “reduced preference for sucrose”. Moreover, the median survival with Scn1a^−/− mice [4] was determined as 16.25 days.

Values taken from patent publication US20220184000A1, “USE OF CANNABIDIOL IN THE TREATMENT OF DRAVET SYNDROME” (priority 2019, published 2022).
